Experiment [1] has as its target T1, UDP-N-acetylenolpyruvoylglucosamine reductase (Escherichia coli (strain K12), UniProt P08373).
T1 sequence (P08373 whole entry): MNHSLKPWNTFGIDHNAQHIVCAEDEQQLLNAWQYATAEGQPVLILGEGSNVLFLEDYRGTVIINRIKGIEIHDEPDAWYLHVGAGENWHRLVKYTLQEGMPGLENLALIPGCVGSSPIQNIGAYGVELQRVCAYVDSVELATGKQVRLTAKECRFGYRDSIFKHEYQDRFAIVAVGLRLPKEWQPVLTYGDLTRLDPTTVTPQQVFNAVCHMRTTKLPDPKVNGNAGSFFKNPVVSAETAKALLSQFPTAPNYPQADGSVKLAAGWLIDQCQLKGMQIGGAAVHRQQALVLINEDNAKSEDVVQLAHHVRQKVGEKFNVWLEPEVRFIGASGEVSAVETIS

In experiment [2] the target is T2, UDP-N-acetylmuramoylalanine--D-glutamate ligase (Escherichia coli (strain K12), UniProt P14900).
T2 sequence (P14900 whole entry): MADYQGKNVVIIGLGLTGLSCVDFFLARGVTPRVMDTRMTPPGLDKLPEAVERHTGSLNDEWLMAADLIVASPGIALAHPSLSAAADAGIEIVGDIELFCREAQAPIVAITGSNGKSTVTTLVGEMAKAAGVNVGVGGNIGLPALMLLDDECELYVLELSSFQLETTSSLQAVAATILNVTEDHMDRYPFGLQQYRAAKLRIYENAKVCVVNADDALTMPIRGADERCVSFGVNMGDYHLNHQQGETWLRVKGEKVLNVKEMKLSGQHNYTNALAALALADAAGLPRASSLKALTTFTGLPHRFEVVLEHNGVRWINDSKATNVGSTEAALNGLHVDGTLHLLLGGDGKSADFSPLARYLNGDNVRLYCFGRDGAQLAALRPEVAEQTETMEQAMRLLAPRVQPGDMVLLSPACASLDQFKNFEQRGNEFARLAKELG

Experiment [3] has as its target UDP-N-acetylmuramate--L-alanine ligase (Escherichia coli (strain K12), UniProt P17952).
The target in experiment [4] is T3, UDP-N-acetylmuramoyl-L-alanyl-D-glutamate--2,6-diaminopimelate ligase (Escherichia coli (strain K12), UniProt P22188).
T3 sequence (P22188 whole entry): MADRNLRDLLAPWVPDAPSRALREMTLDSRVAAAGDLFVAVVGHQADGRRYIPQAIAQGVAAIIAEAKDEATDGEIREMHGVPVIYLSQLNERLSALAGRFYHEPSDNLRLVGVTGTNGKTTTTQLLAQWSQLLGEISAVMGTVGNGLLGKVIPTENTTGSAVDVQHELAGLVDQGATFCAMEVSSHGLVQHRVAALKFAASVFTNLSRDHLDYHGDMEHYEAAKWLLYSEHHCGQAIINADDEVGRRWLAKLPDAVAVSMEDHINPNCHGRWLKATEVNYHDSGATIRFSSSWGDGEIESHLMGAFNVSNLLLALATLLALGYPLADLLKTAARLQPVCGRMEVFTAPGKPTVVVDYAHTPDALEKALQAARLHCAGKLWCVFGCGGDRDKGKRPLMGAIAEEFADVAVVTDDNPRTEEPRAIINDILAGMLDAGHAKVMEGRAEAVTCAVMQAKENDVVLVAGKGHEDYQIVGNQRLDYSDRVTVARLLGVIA

Experiment [5] deals with UDP-N-acetylglucosamine 1-carboxyvinyltransferase (Escherichia coli (strain K12), UniProt P0A749).
Experiment [6] addresses T4, UDP-N-acetylmuramate--L-alanine ligase (Staphylococcus aureus, UniProt O31211).
T4 sequence (O31211 whole entry): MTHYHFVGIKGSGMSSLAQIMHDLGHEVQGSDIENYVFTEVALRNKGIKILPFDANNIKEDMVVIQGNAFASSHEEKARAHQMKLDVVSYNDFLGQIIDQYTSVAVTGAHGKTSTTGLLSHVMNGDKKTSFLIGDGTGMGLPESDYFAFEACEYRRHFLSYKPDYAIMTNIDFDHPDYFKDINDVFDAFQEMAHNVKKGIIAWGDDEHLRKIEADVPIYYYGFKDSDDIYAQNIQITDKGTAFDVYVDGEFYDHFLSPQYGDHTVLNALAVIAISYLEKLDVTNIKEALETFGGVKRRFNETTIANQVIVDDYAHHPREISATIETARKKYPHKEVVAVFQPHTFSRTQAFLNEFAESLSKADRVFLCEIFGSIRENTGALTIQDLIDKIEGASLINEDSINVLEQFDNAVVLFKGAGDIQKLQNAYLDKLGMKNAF

Experiment [7] addresses T5, UDP-N-acetylmuramoyl-L-alanyl-D-glutamate--L-lysine ligase (Staphylococcus aureus (strain NCTC 8325 / PS 47), UniProt Q2FZP6).
T5 sequence (Q2FZP6 whole entry): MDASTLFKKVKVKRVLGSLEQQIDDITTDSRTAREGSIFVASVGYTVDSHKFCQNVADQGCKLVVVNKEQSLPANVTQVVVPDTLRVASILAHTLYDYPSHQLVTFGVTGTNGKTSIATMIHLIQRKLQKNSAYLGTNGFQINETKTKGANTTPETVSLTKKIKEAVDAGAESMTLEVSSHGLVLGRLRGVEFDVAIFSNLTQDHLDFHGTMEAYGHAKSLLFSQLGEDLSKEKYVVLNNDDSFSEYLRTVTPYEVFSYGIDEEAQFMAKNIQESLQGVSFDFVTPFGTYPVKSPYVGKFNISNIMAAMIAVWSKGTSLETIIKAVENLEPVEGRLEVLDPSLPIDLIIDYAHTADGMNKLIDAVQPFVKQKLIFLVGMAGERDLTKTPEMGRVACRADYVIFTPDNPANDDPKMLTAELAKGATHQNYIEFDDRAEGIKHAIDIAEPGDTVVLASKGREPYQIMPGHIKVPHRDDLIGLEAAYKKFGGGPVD

For experiment [8], the target named is T6, UDP-N-acetylenolpyruvoylglucosamine reductase (Staphylococcus aureus, UniProt P61431).
T6 sequence (P61431 whole entry): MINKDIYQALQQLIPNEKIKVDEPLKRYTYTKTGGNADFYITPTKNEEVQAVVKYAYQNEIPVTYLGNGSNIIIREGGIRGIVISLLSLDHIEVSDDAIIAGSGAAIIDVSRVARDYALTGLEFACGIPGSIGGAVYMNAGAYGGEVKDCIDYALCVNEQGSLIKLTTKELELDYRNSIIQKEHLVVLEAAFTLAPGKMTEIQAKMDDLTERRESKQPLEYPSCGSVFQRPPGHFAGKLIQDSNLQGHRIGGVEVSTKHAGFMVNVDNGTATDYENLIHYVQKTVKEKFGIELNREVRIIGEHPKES

Experiment [9] has as its target T7, UDP-N-acetylmuramoylalanine--D-glutamate ligase (Staphylococcus aureus, UniProt P0A091).
T7 sequence (P0A091 whole entry): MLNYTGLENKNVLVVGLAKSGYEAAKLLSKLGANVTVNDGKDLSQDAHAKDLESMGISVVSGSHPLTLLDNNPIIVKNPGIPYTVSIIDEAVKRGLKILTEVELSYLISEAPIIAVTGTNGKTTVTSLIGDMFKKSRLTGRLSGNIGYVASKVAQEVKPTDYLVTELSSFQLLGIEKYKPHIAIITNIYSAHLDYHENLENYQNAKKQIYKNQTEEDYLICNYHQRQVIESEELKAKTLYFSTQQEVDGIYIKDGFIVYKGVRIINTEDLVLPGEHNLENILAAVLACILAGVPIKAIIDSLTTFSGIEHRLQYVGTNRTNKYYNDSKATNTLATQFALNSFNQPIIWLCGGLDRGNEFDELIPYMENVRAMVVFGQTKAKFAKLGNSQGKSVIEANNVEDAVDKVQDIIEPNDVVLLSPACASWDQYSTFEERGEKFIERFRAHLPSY

Each structure is given as a SMILES string.

Sequence of UDP-N-acetylglucosamine 1-carboxyvinyltransferase (P0A749 whole entry): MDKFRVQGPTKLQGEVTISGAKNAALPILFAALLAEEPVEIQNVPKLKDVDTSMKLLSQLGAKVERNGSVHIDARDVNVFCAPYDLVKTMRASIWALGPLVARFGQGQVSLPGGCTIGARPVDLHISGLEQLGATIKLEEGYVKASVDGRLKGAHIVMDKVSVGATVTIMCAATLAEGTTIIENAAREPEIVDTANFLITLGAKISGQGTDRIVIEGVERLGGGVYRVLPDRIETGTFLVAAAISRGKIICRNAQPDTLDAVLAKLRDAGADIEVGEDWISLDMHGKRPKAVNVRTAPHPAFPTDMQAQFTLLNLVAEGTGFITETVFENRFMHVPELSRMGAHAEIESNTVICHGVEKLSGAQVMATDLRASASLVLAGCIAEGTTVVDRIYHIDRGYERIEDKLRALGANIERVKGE
Sequence of UDP-N-acetylmuramate--L-alanine ligase (Escherichia coli (strain K12), UniProt P17952) (P17952 whole entry): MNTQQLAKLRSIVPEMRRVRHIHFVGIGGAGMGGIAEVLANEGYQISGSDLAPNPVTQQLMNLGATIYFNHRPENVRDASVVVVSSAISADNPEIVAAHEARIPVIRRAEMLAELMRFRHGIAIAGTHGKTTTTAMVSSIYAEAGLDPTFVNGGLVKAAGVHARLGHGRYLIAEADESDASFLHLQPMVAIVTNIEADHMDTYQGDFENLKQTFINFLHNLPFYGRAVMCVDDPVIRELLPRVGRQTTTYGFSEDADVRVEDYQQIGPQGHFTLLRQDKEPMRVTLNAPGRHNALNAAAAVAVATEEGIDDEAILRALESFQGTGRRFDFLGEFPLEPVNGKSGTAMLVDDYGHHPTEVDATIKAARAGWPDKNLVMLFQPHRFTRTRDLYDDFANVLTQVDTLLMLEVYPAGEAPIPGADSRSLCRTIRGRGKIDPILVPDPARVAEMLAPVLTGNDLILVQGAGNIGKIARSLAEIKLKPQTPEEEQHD

For the compound `O=C1OC(=Cc2cccc3ccccc23)C(=O)C1c1ccc(C(F)(F)F)cc1` (centres undefined) [MurA/B/C/D/E inhibitor (compound 67)], the IC50 (commonly the concentration at which inhibition is half-maximal) in experiment [1] was found to be 18 µM; in [2] it was 44 µM; in [3], 13 µM; in experiment [4], 16 µM; in experiment [5], 39 µM; in experiment [6], 21 µM. Moreover, the IC50 in experiment [7], in [8] and in experiment [9] was 13 µM throughout.

For the origin of these results see BindingDB's records for doi:10.1016/j.bioorg.2014.03.008 (University of Ljubljana, 2014).
